The compounds below were run on HT-29 cells (assay: Necroptosis assay (TNF-α/Smac mimetic/z-VAD, TSZ-induced) in HT-29 cells). Conditions: Homo sapiens; Series 1 (Table 1) compounds 1-146; HT-29 cells, TNF-α/Smac mimetic/z-VAD, 24 hrs, cell viability by ATP level; read-out: Series 1 compound necroptosis activity.
Type: cell-based, human
Protocol: Methods: HT-29 cells were cultured in McCoy's 5 A culture medium (Invitrogen). On day one, HT-29 cells were plated in 96-well assay plates at density of 2,500-3,500 cells per well. On day two, necrosis were induced by adding 20 ng/ml TNF-α (T), 100 nM Smac mimetic (S), and […] z-VAD (Z). At the same time, 10 mM compound from a chemical library of ˜200,000 compounds was delivered into each well. After 24 hrs treatment, cell viability was determined by measuring ATP level using the Cell Titer-Glo Luminescent Cell Viability Assay kit. A CellTiter-Glo Assay (Promega) was performed according to the manufacturer's instructions. Luminescence was recorded with a PerkinElmer EnSpire Multimode Plate Reader. Survived cells were normalized to those cells treated with DMSO. RIPA-56 was used as a positive control for screening necroptosis inhibitors. Data are represented as mean±standard deviation of duplicates.
In previous work, we performed a cell-based high-throughput screen to identify necroptosis inhibitors using a chemical library of ˜200,000 compounds and identified multiple compounds that protected human colorectal adenocarcinoma (HT-29) cells from TNF-α/Smac mimetic/Z-VAD-fmk (TSZ)-induced necroptosis.^[4]
The anti-necroptosis potency of compounds 7-12 and 14-18 was evaluated in the HT-29 cell line; the EC50 values are shown in Table B.
[a] Necroptosis was induced in HT-29 cells for 24 h; the EC50 values given here are the mean values of at least three independent analyses.

| SMILES | EC50 |
| --- | --- |
| CCn1c(S(C)(=O)=O)nc2c1c(=O)n(C)c(=O)n2C [Compound 74, 7-ethyl-1,3-dimethyl-8-(methylsulfonyl)-1H-purine-2,6(3H,7H)-dione] | 1 to 10 µM |
| CCn1c(S(=O)(=O)CC2CC2)nc2c1c(=O)n(C)c(=O)n2C [Compound 82] | 1 to 100 µM |
| Cn1c(=O)[nH]c2nc(S(C)(=O)=O)n(C)c2c1=O [Compound 99, 1,7-dimethyl-8-(methylsulfonyl)-1H-purine-2,6(3H,7H)-dione] | 1 to 100 µM |
| CCn1c(=O)n(C)c(=O)c2c1nc(S(C)(=O)=O)n2C [Compound 100, 3-ethyl-1,7-dimethyl-8-(methylsulfonyl)-1H-purine-2,6(3H,7H)-dione] | 1 to 100 µM |
| CCCn1c(=O)n(C)c(=O)c2c1nc(S(C)(=O)=O)n2C [Compound 101, 1,7-dimethyl-8-(methylsulfonyl)-3-propyl-1H-purine-2,6(3H,7H)-dione] | 1 to 100 µM |
| Cn1c(=O)c2c(nc(S(C)(=O)=O)n2C)n(CC2CC2)c1=O [Compound 102, 3-(cyclopropylmethyl)-1,7-dimethyl-8-(methylsulfonyl)-1H-purine-2,6(3H,7H)-dione] | 1 to 100 µM |
| Cn1c(=O)c2c(nc(S(C)(=O)=O)n2C)n(Cc2ccccc2)c1=O [Compound 103, 3-benzyl-1,7-dimethyl-8-(methylsulfonyl)-1H-purine-2,6(3H,7H)-dione] | 1 to 100 µM |
| C#CCn1c(=O)n(C)c(=O)c2c1nc(S(C)(=O)=O)n2C [Compound 106, 1,7-dimethyl-8-(methylsulfonyl)-3-(prop-2-ynyl)-1H-purine-2,6(3H,7H)-dione] | 1 to 10 µM |
| Cn1c(=O)c2c(nc(S(C)(=O)=O)n2C)n(CC#N)c1=O [Compound 107, 2-(1,7-dimethyl-8-(methylsulfonyl)-2,6-dioxo-1H-purin-3(2H,6H,7H)-yl)acetonitrile] | 1 to 100 µM |
| Cn1c(=O)c2c(nc(S(=O)(=O)CC3CC3)n2C)n(CC#Cc2cccc(Cl)c2)c1=O [Compound 119, 3-(3-(3-chlorophenyl)prop-2-yn-1-yl)-8-((cyclopropylmethyl)sulfonyl)-1,7-dimethyl-3,7-dihydro-1H-purine-2,6-dione] | 1 to 10 µM |

Same assay, conditions: Homo sapiens; Series 2 (Table 2) compounds; HT-29 necroptosis assay; read-out: Series 2 compound necroptosis activity

| SMILES | EC50 |
| --- | --- |
| Cn1c(=O)c2c(nc3n2CCS3(=O)=O)n(CC#Cc2cccc(NCCN3CCOCC3)c2)c1=O [Compound 67] | 0.001 to 0.1 µM |

Same assay, conditions: Series 1 (Table 1) compounds 1-146; HT-29 cells, TNF-α/Smac mimetic/z-VAD, 24 hrs, cell viability by ATP level; read-out: Series 1 compound necroptosis activity

| SMILES | EC50 |
| --- | --- |
| Cn1c(=O)c2c(nc(S(=O)(=O)Cc3ccc(Br)c(Cl)c3)n2C)n(C)c1=O [Compound 64, 8-(4-bromo-3-chlorobenzylsulfonyl)-1,3,7-trimethyl-1H-purine-2,6(3H,7H)-dione] | 1 to 1000 µM |
| CCOc1ccc(OC)cc1CS(=O)(=O)c1nc2c(c(=O)n(C)c(=O)n2C)n1C [Compound 65, 8-(2-ethoxy-5-methoxybenzylsulfonyl)-1,3,7-trimethyl-1H-purine-2,6(3H,7H)-dione] | 1 to 1000 µM |
| CCCOc1ccc(OC)cc1CS(=O)(=O)c1nc2c(c(=O)n(C)c(=O)n2C)n1C [Compound 66, 8-(5-methoxy-2-propoxybenzylsulfonyl)-1,3,7-trimethyl-1H-purine-2,6(3H,7H)-dione] | 1 to 1000 µM |
| CCOc1ccc(OC)c(CS(=O)(=O)c2nc3c(c(=O)n(C)c(=O)n3C)n2C)c1 [Compound 67, 8-(5-ethoxy-2-methoxybenzylsulfonyl)-1,3,7-trimethyl-1H-purine-2,6(3H,7H)-dione] | 1 to 1000 µM |
| CCCOc1ccc(OC)c(CS(=O)(=O)c2nc3c(c(=O)n(C)c(=O)n3C)n2C)c1 [Compound 68, 8-(2-methoxy-5-propoxybenzylsulfonyl)-1,3,7-trimethyl-1H-purine-2,6(3H,7H)-dione] | 1 to 1000 µM |
| COc1ccc(Br)c(OC)c1CS(=O)(=O)c1nc2c(c(=O)n(C)c(=O)n2C)n1C [Compound 69, 8-(3-bromo-2,6-dimethoxybenzylsulfonyl)-1,3,7-trimethyl-1H-purine-2,6(3H,7H)-dione] | 1 to 1000 µM |
| COc1cc(CS(=O)(=O)c2nc3c(c(=O)n(C)c(=O)n3C)n2C)c(OC)cc1Cl [Compound 70, 8-(4-chloro-2,5-dimethoxybenzylsulfonyl)-1,3,7-trimethyl-1H-purine-2,6(3H,7H)-dione] | 1 to 1000 µM |
| COc1cc(CS(=O)(=O)c2nc3c(c(=O)n(C)c(=O)n3C)n2C)c(OC)cc1F [Compound 71, 8-(4-fluoro-2,5-dimethoxybenzylsulfonyl)-1,3,7-trimethyl-1H-purine-2,6(3H,7H)-dione] | 1 to 1000 µM |
| Cn1c(=O)c2[nH]c(S(C)(=O)=O)nc2n(C)c1=O [Compound 72, 1,3-dimethyl-8-(methylsulfonyl)-1H-purine-2,6(3H,7H)-dione] | 1 to 1000 µM |
| CCn1c(SC)nc2c1c(=O)n(C)c(=O)n2C [Compound 73, 7-ethyl-1,3-dimethyl-8-(methylthio)-1H-purine-2,6(3H,7H)-dione] | 1 to 1000 µM |
| CCSc1nc2c(c(=O)n(C)c(=O)n2C)n1CC [Compound 75, 7-ethyl-8-(ethylthio)-1,3-dimethyl-1H-purine-2,6(3H,7H)-dione] | 1 to 1000 µM |
| CCn1c([S+]([O-])CC)nc2c1c(=O)n(C)c(=O)n2C (stereo not shown) [Compound 76, 7-ethyl-8-(ethylsulfinyl)-1,3-dimethyl-1H-purine-2,6(3H,7H)-dione] | 1 to 1000 µM |
| CCn1c(S(=O)(=O)CC)nc2c1c(=O)n(C)c(=O)n2C [Compound 77, 7-ethyl-8-(ethylsulfonyl)-1,3-dimethyl-1H-purine-2,6(3H,7H)-dione] | 1 to 1000 µM |
| CCCSc1nc2c(c(=O)n(C)c(=O)n2C)n1CC [Compound 78, 7-ethyl-1,3-dimethyl-8-(propylthio)-1H-purine-2,6(3H,7H)-dione] | 1 to 1000 µM |
| CCC[S+]([O-])c1nc2c(c(=O)n(C)c(=O)n2C)n1CC (stereo not shown) [Compound 79, 7-ethyl-1,3-dimethyl-8-(propylsulfinyl)-1H-purine-2,6(3H,7H)-dione] | 1 to 1000 µM |
| CCCS(=O)(=O)c1nc2c(c(=O)n(C)c(=O)n2C)n1CC [Compound 80, 7-ethyl-1,3-dimethyl-8-(propylsulfonyl)-1H-purine-2,6(3H,7H)-dione] | 1 to 1000 µM |
| CCn1c(SCC2CC2)nc2c1c(=O)n(C)c(=O)n2C [Compound 81, 8-(cyclopropylmethylthio)-7-ethyl-1,3-dimethyl-1H-purine-2,6(3H,7H)-dione] | 1 to 1000 µM |
| CCCn1c(S(C)(=O)=O)nc2c1c(=O)n(C)c(=O)n2C [Compound 83, 1,3-dimethyl-8-(methylsulfonyl)-7-propyl-1H-purine-2,6(3H,7H)-dione] | 1 to 1000 µM |
| Cn1c(=O)c2c(nc(S(C)(=O)=O)n2CC#N)n(C)c1=O [Compound 84, 2-(1,3-dimethyl-8-(methylsulfonyl)-2,6-dioxo-2,3-dihydro-1H-purin-7(6H)-yl)acetonitrile] | 1 to 1000 µM |
| CSc1nc2c(c(=O)n(C)c(=O)n2C)n1CC(N)=O [Compound 85, 2-(1,3-dimethyl-8-(methylthio)-2,6-dioxo-2,3-dihydro-1H-purin-7(6H)-yl)acetamide] | 1 to 1000 µM |
| Cn1c(=O)c2c(nc(S(C)(=O)=O)n2CC(N)=O)n(C)c1=O [Compound 86, 2-(1,3-dimethyl-8-(methylsulfonyl)-2,6-dioxo-2,3-dihydro-1H-purin-7(6H)-yl)acetamide] | 1 to 1000 µM |
| CSc1nc2c(c(=O)[nH]c(=O)n2C)n1C [Compound 87, 3,7-dimethyl-8-(methylthio)-1H-purine-2,6(3H,7H)-dione] | 1 to 1000 µM |
| Cn1c(S(C)(=O)=O)nc2c1c(=O)[nH]c(=O)n2C [Compound 88, 3,7-dimethyl-8-(methylsulfonyl)-1H-purine-2,6(3H,7H)-dione] | 1 to 1000 µM |
| CCn1c(=O)c2c(nc(S(C)(=O)=O)n2C)n(C)c1=O [Compound 89, ethyl-3,7-dimethyl-8-(methylsulfonyl)-1H-purine-2,6(3H,7H)-dione] | 1 to 1000 µM |
| CCCn1c(=O)c2c(nc(S(C)(=O)=O)n2C)n(C)c1=O [Compound 90, 3,7-dimethyl-8-(methylsulfonyl)-1-propyl-1H-purine-2,6(3H,7H)-dione] | 1 to 1000 µM |
| Cn1c(S(C)(=O)=O)nc2c1c(=O)n(CC1CC1)c(=O)n2C [Compound 91, 1-(cyclopropylmethyl)-3,7-dimethyl-8-(methylsulfonyl)-1H-purine-2,6(3H,7H)-dione] | 1 to 1000 µM |
| Cn1c(S(C)(=O)=O)nc2c1c(=O)n(-c1ccccc1)c(=O)n2C [Compound 92, 3,7-dimethyl-8-(methylsulfonyl)-1-phenyl-1H-purine-2,6(3H,7H)-dione] | 1 to 1000 µM |
| Cn1c(S(C)(=O)=O)nc2c1c(=O)n(Cc1ccccc1)c(=O)n2C [Compound 93, 1-benzyl-3,7-dimethyl-8-(methylsulfonyl)-1H-purine-2,6(3H,7H)-dione] | 1 to 1000 µM |

Same assay, conditions: Series 1 (Table 1) compounds; HT-29 cells, TNF-α/Smac mimetic/z-VAD, 24 hrs, cell viability by ATP level; read-out: Series 1 compound necroptosis activity

| SMILES | EC50 |
| --- | --- |
| Cn1c(=O)c2c(nc(S(=O)(=O)CC3CC3)n2C)n(CC#Cc2ccc(Cl)cc2)c1=O [Compound 121, 3-(3-(4-chlorophenyl)prop-2-yn-1-yl)-8-((cyclopropylmethyl)sulfonyl)-1,7-dimethyl-3,7-dihydro-1H-purine-2,6-dione] | 0.001 to 1 µM |

Source: patent publication US11666577B2 (National Institute of Biological Sciences, Beijing, priority 2018, dated 2023)
